According to the NIST ThermoML archive (doi:10.1016/j.fluid.2017.08.022):
± gives the expanded uncertainty stated by the source.

Conditions: for mass density: 100 kPa, Liquid, Buoyancy - hydrostatic balance with magnetic suspension - one sinker

CCCCn1cc[n+](C)c1.[Cl-] [1-butyl-3-methylimidazolium chloride]
surface tension liquid-gas [mN/m]
Conditions	Ring tensiometer	Wilhelmy Plate
303.11 K	50.32 ± 1.2	–
308.23 K	–	49.64 ± 0.12
308.27 K	50.3 ± 1.2	–
313.06 K	–	49.26 ± 0.12
313.07 K	49.73 ± 1.2	–
318.04 K	49.68 ± 1.2	–
318.07 K	–	48.97 ± 0.12
323.1 K	49.23 ± 1.2	48.58 ± 0.12
327.9 K	–	48.24 ± 0.12
327.96 K	48.8 ± 1.2	–
333.82 K	–	47.81 ± 0.12
333.85 K	48.35 ± 1.2	–
338.23 K	48.24 ± 1.2	–
338.28 K	–	47.55 ± 0.12
342.85 K	47.76 ± 1.2	–
343.23 K	–	47.16 ± 0.12
348.79 K	47.38 ± 1.2	–
348.85 K	–	46.9 ± 0.12
353.81 K	–	46.5 ± 0.12
353.87 K	47.16 ± 1.2	–
357.26 K	–	46.29 ± 0.12
357.34 K	46.88 ± 1.1	–
364.83 K	46.46 ± 1.1	–
364.9 K	–	45.76 ± 0.12

Conditions	mass density [kg/m3]
313.05 K	1073.4 ± 0.52
318.21 K	1070.57 ± 0.52
323.11 K	1067.9 ± 0.52
328.37 K	1065.5 ± 0.52
334.27 K	1062.01 ± 0.52
338.89 K	1059.46 ± 0.52
343.88 K	1056.78 ± 0.52
349.01 K	1054.21 ± 0.52
353.91 K	1051.34 ± 0.52
357.34 K	1049.12 ± 0.52
364.78 K	1044.98 ± 0.52

CCCCCCCCCCn1cc[n+](C)c1.[Cl-] [1-decyl-3-methylimidazolium chloride]
Conditions	surface tension liquid-gas [mN/m]
317.84 K, Ring tensiometer	27.09 ± 0.68
323.12 K, Wilhelmy Plate	26.44 ± 0.13
323.14 K, Ring tensiometer	26.85 ± 0.67
328.25 K, Wilhelmy Plate	26.12 ± 0.13
328.26 K, Ring tensiometer	26.45 ± 0.67
333.1 K, Wilhelmy Plate	25.87 ± 0.13
333.13 K, Ring tensiometer	26.14 ± 0.67
338.32 K, Wilhelmy Plate	25.57 ± 0.13
338.37 K, Ring tensiometer	25.54 ± 0.67
342.9 K, Wilhelmy Plate	25.37 ± 0.13
342.95 K, Ring tensiometer	25.7 ± 0.67
348.09 K, Wilhelmy Plate	25.15 ± 0.13
348.13 K, Ring tensiometer	25.61 ± 0.67
353.32 K, Wilhelmy Plate	24.85 ± 0.13
353.33 K, Ring tensiometer	24.76 ± 0.66
358.44 K, Wilhelmy Plate	24.59 ± 0.12
358.57 K, Ring tensiometer	24.5 ± 0.66

Conditions	mass density [kg/m3]
317.88 K	973.64 ± 0.36
323.19 K	970.69 ± 0.36
328.33 K	968.07 ± 0.36
333.2 K	964.94 ± 0.35
338.44 K	962.23 ± 0.35
343.26 K	958.59 ± 0.35
348.19 K	956.59 ± 0.35
353.38 K	953.42 ± 0.35
358.17 K	950.62 ± 0.35
363.44 K	947.62 ± 0.35

CCn1cc[n+](C)c1.[Cl-] [1-ethyl-3-methylimidazolium chloride]
Conditions	mass density [kg/m3]
313.38 K	1134.76 ± 1.2
318.3 K	1132.06 ± 1.2
323.25 K	1129.33 ± 1.2
328.1 K	1126.5 ± 1.2
333.15 K	1124.02 ± 1.1
338.1 K	1120.96 ± 1.1
342.86 K	1118.28 ± 1.1
347.66 K	1115.32 ± 1.1
353.21 K	1112.21 ± 1.1
359.06 K	1109.07 ± 1.1
364.85 K	1106.29 ± 1.1

surface tension liquid-gas [mN/m]
Conditions	Ring tensiometer	Wilhelmy Plate
333.2 K	62.56 ± 1	62.6 ± 0.63
338.15 K	62.12 ± 1	–
338.24 K	–	62.26 ± 0.63
343.38 K	62.16 ± 1	61.82 ± 0.62
348.57 K	–	61.51 ± 0.62
348.58 K	61.59 ± 1	–
353.3 K	61.45 ± 1	–
353.32 K	–	61.1 ± 0.61
358.44 K	60.8 ± 0.99	–
358.5 K	–	60.64 ± 0.61
364.76 K	60.05 ± 0.98	–
364.96 K	–	60.2 ± 0.61

CCCCCCn1cc[n+](C)c1.[Cl-] [1-hexyl-3-methylimidazolium chloride]
surface tension liquid-gas [mN/m]
Conditions	Ring tensiometer	Wilhelmy Plate
303.19 K	39.83 ± 0.73	–
303.22 K	–	39.37 ± 0.12
308.21 K	–	39.15 ± 0.12
308.22 K	39.58 ± 0.72	–
312.93 K	–	38.95 ± 0.12
312.95 K	39.37 ± 0.72	–
318.33 K	39.1 ± 0.72	38.69 ± 0.12
323.1 K	–	38.45 ± 0.12
323.12 K	38.84 ± 0.72	–
328.18 K	–	38.17 ± 0.12
328.2 K	38.54 ± 0.72	–
333.27 K	–	37.94 ± 0.12
333.31 K	38.3 ± 0.71	–
338.68 K	–	37.66 ± 0.12
338.71 K	37.97 ± 0.71	–
343.01 K	–	37.44 ± 0.12
343.06 K	37.74 ± 0.71	–
348.1 K	–	37.16 ± 0.12
348.15 K	37.52 ± 0.71	–
353.53 K	–	36.93 ± 0.12
353.63 K	37.19 ± 0.71	–
358.12 K	–	36.68 ± 0.12
358.24 K	37 ± 0.71	–
363.07 K	–	36.42 ± 0.12
363.17 K	36.72 ± 0.7	–

Conditions	mass density [kg/m3]
303.22 K	1035.05 ± 0.29
308.25 K	1032.18 ± 0.29
313 K	1029.5 ± 0.29
318.38 K	1026.54 ± 0.29
323.18 K	1023.64 ± 0.29
328.31 K	1020.97 ± 0.29
333.34 K	1017.64 ± 0.29
338.73 K	1014.46 ± 0.29
343.06 K	1011.76 ± 0.29
348.19 K	1009.28 ± 0.29
353.71 K	1006.44 ± 0.29
358.14 K	1004 ± 0.29
363.17 K	1001.49 ± 0.29

CCC[n+]1ccn(C)c1.[Cl-] [1-methyl-3-propylimidazolium chloride]
surface tension liquid-gas [mN/m]
Conditions	Ring tensiometer	Wilhelmy Plate
308.21 K	56.7 ± 1.2	–
313.04 K	–	55.61 ± 0.08
313.07 K	56.45 ± 1.2	–
318.32 K	56.27 ± 1.2	–
318.34 K	–	55.41 ± 0.08
323.54 K	55.92 ± 1.2	54.98 ± 0.08
328.41 K	–	54.7 ± 0.08
328.46 K	55.49 ± 1.2	–
333.49 K	–	54.42 ± 0.08
333.5 K	55.37 ± 1.2	–
337.95 K	–	54.09 ± 0.08
338 K	54.98 ± 1.2	–
343.39 K	–	53.8 ± 0.08
343.45 K	54.58 ± 1.2	–
348.34 K	–	53.59 ± 0.08
348.39 K	54.3 ± 1.2	–
353.07 K	–	53.29 ± 0.08
353.11 K	54.07 ± 1.2	–
358.45 K	–	52.95 ± 0.08
358.5 K	53.69 ± 1.2	–
363.91 K	53.27 ± 1.2	–
364.37 K	–	52.57 ± 0.08

Conditions	mass density [kg/m3]
308.26 K	1103.45 ± 0.44
313.1 K	1100.71 ± 0.44
318.25 K	1097.5 ± 0.44
323.58 K	1094.84 ± 0.44
328.52 K	1091.95 ± 0.44
333.54 K	1089.17 ± 0.44
338.03 K	1086.64 ± 0.44
343.46 K	1083.12 ± 0.44
348.39 K	1080.73 ± 0.44
353.12 K	1078.37 ± 0.44
358.51 K	1075.69 ± 0.44
363.89 K	1071.76 ± 0.44

Cl.Cn1ccnc1 [1-methylimidazolium chloride]
Conditions	mass density [kg/m3]
333.65 K	1195.33 ± 1
338.68 K	1192.04 ± 1
343.7 K	1187.98 ± 1
347.72 K	1186.51 ± 1
353.06 K	1184.13 ± 1
359.06 K	1180.78 ± 1
363.86 K	1177.41 ± 1

surface tension liquid-gas [mN/m]
Conditions	Ring tensiometer	Wilhelmy Plate
333.66 K	67.02 ± 1.1	–
333.67 K	–	66.84 ± 0.07
338.7 K	66.37 ± 1.1	66.5 ± 0.07
343.19 K	–	66.13 ± 0.07
343.24 K	66.48 ± 1.1	–
348.1 K	66.18 ± 1.1	–
348.11 K	–	65.78 ± 0.07
352.35 K	–	65.4 ± 0.07
352.38 K	65.96 ± 1.1	–
359.12 K	65.47 ± 1.1	–
359.17 K	–	64.87 ± 0.07
363.94 K	65.12 ± 1.1	–
364 K	–	64.58 ± 0.07
